According to patent US12440492B2, “Pharmaceutical compositions comprising AKT protein kinase inhibitors” (Genentech, Inc., priority 2016, dated 2025):
Values joined by “and” are separate entries in the source; they are usually repeats but may differ in a detail not shown here. Equal values may be shown once. Where a name gives a salt, the structure may show the parent alone.

Assays:
Format in all cases: physicochemical
[1] = Bulk density, tapped density and Carr index; details: for Bulk density / Tapped density: monohydrochloride
[2] = Particle size distribution (d10, d50, d90) by laser diffraction
Description: FIG. 6 illustrates particle size distribution of the material of Example 6C (Batch HQ00003) spray dried with two-feed nozzle as obtained by laser diffraction A bimodal particle size distribution is obvious. FIG. 9 illustrates particle size distribution of spray dried material with rotary wheel nozzle, i.e. of the material of batch BS1506SA03 of Example 13 (Table 20) obtained using a Malvern Mastersizer 2000 equipped with Hydro 2000S wet sample dispersion unit (Malvern Instruments Ltd, Malvern/UK). A monomodal particle size distribution is obvious. The terms “d50 value” (sometimes also referred to as “d(0.5)-value”) and “mass-median diameter” (or MMD) can be used interchangeably and denote the average particle size by mass, i.e. the average equivalent diameter of a particle, which is defined as the diameter where 50% (w) of the particles of the ensemble have a larger equivalent spherical diameter, and the other 50% (w) have a smaller equivalent spherical diameter. In analogy, the term “d10-value” denotes the particle diameter wherein 10% (w) of the particles of the ensemble have a smaller equivalent spherical diameter. In analogy, the term “d90-value” denotes the particle diameter wherein 90% (w) of the particles of the ensemble have a smaller equivalent spherical diameter.

[3] = Solid state by X-ray powder diffraction; details: * indicates absence of crystalline API; for Solid state / Polymorphy (X-Ray, XRPD): monohydrochloride
Description: Bragg's law describes the diffraction of crystalline material with the equation “2d·sin(theta)=n·lambda”, wherein “d” denotes perpendicular distance (in Angstroms) between pairs of adjacent planes in a crystal (“d-spacing”), “theta” denotes the Bragg angle, “lambda” denotes the wavelength and “n” is an integer. When Bragg's law is fulfilled, the reflected beams are in phase and interfere constructively so that Bragg diffraction peaks are observed in the X-ray diffraction pattern. At angles of incidence other than the Bragg angle, reflected beams are out of phase and destructive interference or cancellation occurs. […] The XRPD pattern of an amorphous material is further characterized by one or more amorphous halos.
The term “XRPD” denotes the analytical method of X-Ray Powder Diffraction. The repeatability of the angular values is in the range of 2Theta±0.2°, more particularly in the range of 2Theta±0.1°. The term “approximately” given in combination with an angular value denotes the variance which is in the range of 2Theta±0.2°, particularly in the range of 2Theta±0.1°. The relative XRPD peak intensity is dependent upon many factors such as structure factor, temperature factor, crystallinity, polarization factor, multiplicity, and Lorentz factor. Relative intensities may vary considerably from one measurement to another due to preferred orientation effects. According to USP 941 (US Pharmacopoeia, 37th Edition, General Chapter 941), relative intensities between two samples of the same material may vary considerably due to “preferred orientation” effects. Anisotropic materials adopting preferred orientation will lead to anisotropic distribution of properties such as modulus, strength, ductility, toughness, electrical conductivity, thermal expansion, etc., as described e.g. in Kocks U. F. et al. (Texture and Anisotropy: Preferred Orientations in Polycrystals and Their Effect on Materials Properties, Cambridge University Press, 2000). In XRPD but also Raman spectroscopy, preferred orientations cause a change in the intensity distribution. Preferred orientation effects are particularly pronounced with crystalline APIs of relatively large particle size.

[4] = Shear cell testing with Ring Shear Tester RST-XS
Description: Similar to the classification used by Jenike (Dietmar Schulze, Pulver und Schüttgüter, 2009 Springer Verlag Berlin/DE), one can define flow behaviour based on the flow function constant (ffc) as follows:
The larger the flow function constant ffc, i.e., the smaller the ratio of the unconfined yield strength (σc) to the consolidation stress (σ1), the better a bulk solid's flow.

[5] = spray dried amorphous ipatasertib monohydrochloride powder
[6] = Pre-shear stress 1000 PA, 30 mL shear cell, monohydrochloride
[7] = spray-dried amorphous ipatasertib monohydrochloride, rotary wheel atomizer

CC(C)NC[C@@H](C(=O)N1CCN(c2ncnc3c2[C@H](C)C[C@H]3O)CC1)c1ccc(Cl)cc1 [Composition 140910417, ipatasertib monohydrochloride]
Bulk density [1, 5]: 0.39 gcm^−3
Tapped density [1, 5]: 0.55 gcm^−3
Particle size d10 [2, 5]: 11 μm
Particle size d50 [2, 5]: 27 μm
Particle size d90 [2, 5]: 54 μm
Solid state / Polymorphy (X-Ray, XRPD) [3]: amorph.*
Consolidation stress (σ1) [4, 6]: 1726 PA
Flow Function Constant (ffc) [4, 6]: 2.9

CC(C)NC[C@@H](C(=O)N1CCN(c2ncnc3c2[C@H](C)C[C@H]3O)CC1)c1ccc(Cl)cc1 [Composition 140910416, ipatasertib monohydrochloride]
Bulk density [1, 5]: 0.40 gcm^−3
Tapped density [1, 5]: 0.55 gcm^−3
Particle size d10 [2, 5]: 10 μm
Particle size d50 [2, 5]: 27 μm
Particle size d90 [2, 5]: 52 μm
Solid state / Polymorphy (X-Ray, XRPD) [3]: amorph.*
Consolidation stress (σ1) [4, 6]: 1731 PA
Flow Function Constant (ffc) [4, 6]: 2.8

CC(C)NC[C@@H](C(=O)N1CCN(c2ncnc3c2[C@H](C)C[C@H]3O)CC1)c1ccc(Cl)cc1 [BS1506SA05, ipatasertib monohydrochloride]
Bulk density [1, 7]: 0.41 gcm^−3
Tapped density [1, 7]: 0.57 gcm^−3
Particle size d10 [2, 7]: 13 μm
Particle size d50 [2, 7]: 33 μm
Particle size d90 [2, 7]: 65 μm
Polymorphy (X-Ray) [3]: amorphous*
Consolidation stress (σ1) [4, 6]: 1668 PA
Flow Function Constant (ffc) [4, 6]: 3.5

CC(C)NC[C@@H](C(=O)N1CCN(c2ncnc3c2[C@H](C)C[C@H]3O)CC1)c1ccc(Cl)cc1 [BS1506SA04, ipatasertib monohydrochloride]
Bulk density [1, 7]: 0.40 gcm^−3
Tapped density [1, 7]: 0.56 gcm^−3
Particle size d10 [2, 7]: 11 μm
Particle size d50 [2, 7]: 30 μm
Particle size d90 [2, 7]: 62 μm
Polymorphy (X-Ray) [3]: amorphous*
Consolidation stress (σ1) [4, 6]: 1707 PA
Flow Function Constant (ffc) [4, 6]: 3.2

CC(C)NC[C@@H](C(=O)N1CCN(c2ncnc3c2[C@H](C)C[C@H]3O)CC1)c1ccc(Cl)cc1 [BS1506SA07, ipatasertib monohydrochloride]
Bulk density [1, 7]: 0.42 gcm^−3
Tapped density [1, 7]: 0.56 gcm^−3
Particle size d10 [2, 7]: 13 μm
Particle size d50 [2, 7]: 32 μm
Particle size d90 [2, 7]: 65 μm
Polymorphy (X-Ray) [3]: amorphous*
Consolidation stress (σ1) [4, 6]: 1705 PA
Flow Function Constant (ffc) [4, 6]: 3.1

CC(C)NC[C@@H](C(=O)N1CCN(c2ncnc3c2[C@H](C)C[C@H]3O)CC1)c1ccc(Cl)cc1 [Composition 140910419, ipatasertib monohydrochloride]
Bulk density [1, 5]: 0.44 gcm^−3
Tapped density [1, 5]: 0.58 gcm^−3
Particle size d10 [2, 5]: 11 μm
Particle size d50 [2, 5]: 33 μm
Particle size d90 [2, 5]: 67 μm
Solid state / Polymorphy (X-Ray, XRPD) [3]: amorph.*
Consolidation stress (σ1) [4, 6]: 1729 PA
Flow Function Constant (ffc) [4, 6]: 3.5

CC(C)NC[C@@H](C(=O)N1CCN(c2ncnc3c2[C@H](C)C[C@H]3O)CC1)c1ccc(Cl)cc1 [BS1506SA06, ipatasertib monohydrochloride]
Bulk density [1, 7]: 0.41 gcm^−3
Tapped density [1, 7]: 0.56 gcm^−3
Particle size d10 [2, 7]: 12 μm
Particle size d50 [2, 7]: 32 μm
Particle size d90 [2, 7]: 63 μm
Polymorphy (X-Ray) [3]: amorphous*
Consolidation stress (σ1) [4, 6]: 1683 PA
Flow Function Constant (ffc) [4, 6]: 3.2

CC(C)NC[C@@H](C(=O)N1CCN(c2ncnc3c2[C@H](C)C[C@H]3O)CC1)c1ccc(Cl)cc1 [Composition 140910418, ipatasertib monohydrochloride]
Bulk density [1, 5]: 0.39 gcm^−3
Tapped density [1, 5]: 0.55 gcm^−3
Particle size d10 [2, 5]: 10 μm
Particle size d50 [2, 5]: 26 μm
Particle size d90 [2, 5]: 52 μm
Solid state / Polymorphy (X-Ray, XRPD) [3]: amorph.*
Consolidation stress (σ1) [4, 6]: 1730 PA
Flow Function Constant (ffc) [4, 6]: 3.1

CC(C)NC[C@@H](C(=O)N1CCN(c2ncnc3c2[C@H](C)C[C@H]3O)CC1)c1ccc(Cl)cc1 [BS1506SA01, ipatasertib monohydrochloride]
Bulk density [1, 7]: 0.41 gcm^−3
Tapped density [1, 7]: 0.57 gcm^−3
Particle size d10 [2, 7]: 11 μm
Particle size d50 [2, 7]: 31 μm
Particle size d90 [2, 7]: 64 μm
Polymorphy (X-Ray) [3]: amorphous*
Consolidation stress (σ1) [4, 6]: 1725 PA
Flow Function Constant (ffc) [4, 6]: 4.0

CC(C)NC[C@@H](C(=O)N1CCN(c2ncnc3c2[C@H](C)C[C@H]3O)CC1)c1ccc(Cl)cc1 [Example 6C′, ipatasertib monohydrochloride]
Carr Index [1, 5]: 38%
Bulk density [1, 5]: 0.262 gcm^−3 and 0.26 gcm^−3
Tapped density [1, 5]: 0.423 gcm^−3 and 0.42 gcm^−3
Particle size d10 [2, 5]: 0.8 μm
Particle size d50 [2, 5]: 3.0 μm
Particle size d90 [2, 5]: 5.7 μm
Consolidation stress (σ1) ([4]; Pre-shear stress 1000 PA): 2118 PA
Flow Function Constant (ffc) ([4]; Pre-shear stress 1000 PA): 1.08
tc ([4]; Pre-shear stress 1000 PA): 514 Pa
Consolidation stress (σ1) ([4]; Pre-shear stress 2000 PA): 4844 PA
Flow Function Constant (ffc) ([4]; Pre-shear stress 2000 PA): 1.09
tc ([4]; Pre-shear stress 2000 PA): 1095 Pa
Consolidation stress (σ1) ([4]; Pre-shear stress 4000 PA): 9557 PA
Flow Function Constant (ffc) ([4]; Pre-shear stress 4000 PA): 1.12
tc ([4]; Pre-shear stress 4000 PA): 2041 Pa
ffc ([4]; across all pre-shear stresses): around 1.1
flowability ([4]; shear cell testing): very poor flowability

CC(C)NC[C@@H](C(=O)N1CCN(c2ncnc3c2[C@H](C)C[C@H]3O)CC1)c1ccc(Cl)cc1 [Composition 140210412, ipatasertib monohydrochloride]
Bulk density [1, 5]: 0.47 gcm^−3
Tapped density [1, 5]: 0.60 gcm^−3
Particle size d10 [2, 5]: 13 μm
Particle size d50 [2, 5]: 46 μm
Particle size d90 [2, 5]: 94 μm
Solid state / Polymorphy (X-Ray, XRPD) [3]: amorphous*

CC(C)NC[C@@H](C(=O)N1CCN(c2ncnc3c2[C@H](C)C[C@H]3O)CC1)c1ccc(Cl)cc1 [Composition 140110408, ipatasertib monohydrochloride]
Bulk density [1, 5]: 0.34 gcm^−3
Tapped density [1, 5]: 0.50 gcm^−3
Particle size d10 [2, 5]: 9.3 μm
Particle size d50 [2, 5]: 26 μm
Particle size d90 [2, 5]: 58 μm
Solid state / Polymorphy (X-Ray, XRPD) [3]: amorphous*

CC(C)NC[C@@H](C(=O)N1CCN(c2ncnc3c2[C@H](C)C[C@H]3O)CC1)c1ccc(Cl)cc1 [Composition 141210423, ipatasertib monohydrochloride]
Bulk density [1, 5]: 0.39 gcm^−3
Tapped density [1, 5]: 0.55 gcm^−3
Particle size d10 [2, 5]: 10 μm
Particle size d50 [2, 5]: 28 μm
Particle size d90 [2, 5]: 56 μm
Solid state / Polymorphy (X-Ray, XRPD) [3]: amorph.*

CC(C)NC[C@@H](C(=O)N1CCN(c2ncnc3c2[C@H](C)C[C@H]3O)CC1)c1ccc(Cl)cc1 [Composition 130710451, ipatasertib monohydrochloride]
Bulk density [1, 5]: 0.48 gcm^−3
Tapped density [1, 5]: 0.61 gcm^−3
Particle size d10 [2, 5]: 17 μm
Particle size d50 [2, 5]: 45 μm
Particle size d90 [2, 5]: 88 μm
Solid state / Polymorphy (X-Ray, XRPD) [3]: Amorphous*

CC(C)NC[C@@H](C(=O)N1CCN(c2ncnc3c2[C@H](C)C[C@H]3O)CC1)c1ccc(Cl)cc1 [Composition 141210422, ipatasertib monohydrochloride]
Bulk density [1, 5]: 0.37 gcm^−3
Tapped density [1, 5]: 0.54 gcm^−3
Particle size d10 [2, 5]: 9.6 μm
Particle size d50 [2, 5]: 27 μm
Particle size d90 [2, 5]: 54 μm
Solid state / Polymorphy (X-Ray, XRPD) [3]: amorph.*

CC(C)NC[C@@H](C(=O)N1CCN(c2ncnc3c2[C@H](C)C[C@H]3O)CC1)c1ccc(Cl)cc1 [Composition 141210426, ipatasertib monohydrochloride]
Bulk density [1, 5]: 0.24 gcm^−3
Tapped density [1, 5]: 0.37 gcm^−3
Particle size d10 [2, 5]: 8.5 μm
Particle size d50 [2, 5]: 21 μm
Particle size d90 [2, 5]: 43 μm
Solid state / Polymorphy (X-Ray, XRPD) [3]: amorph.*
